# Measurements reported in article PMC4503722, “Novel Phenotypic Outcomes Identified for a Public Collection of Approved Drugs from a Publicly Accessible Panel of Assays” (PLoS ONE, 2015).
# Like-named read-outs stand apart in the source and are kept apart here.
# What was measured:
# [1] = tested on: endothelial tube formation in co-cultures of ECFCs and ADSCs treated with VEGF; experiment: cells; format: cell-based, human; conditions: for IC50: read-out: VEGF_ADSC\ECFC Angio CD31 TubeArea summarized IC50
# [2] = tested on: ECFC/ADSC co-culture cell nuclei number; conditions: for IC50: read-out: VEGF_ADSC\ECFC Angio Hoechst NucArea summarized IC50
# HeLa cells = experiment: cells; format: cell-based;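 on Hela CellCycMod PI 4N summarized IC50: value tracks stimulation of 4N DNA content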
SMILES,VEGF_ADSC\ECFC Angio CD31 TubeArea IC50/EC50 [1] [µM],VEGF_ADSC\ECFC Angio Hoechst NucArea IC50/EC50 [2] [µM],IC50 [1] [µM],IC50 [2] [µM],also measured
C#C[C@]1(OC(C)=O)CC[C@H]2[C@@H]3CCC4=CC(=NO)CC[C@@H]4[C@H]3CC[C@@]21CC (mixture of isomers) [NCGC00344561-01],> 10,> 10,,,
"CC(C)c1c(C(=O)Nc2ccccc2)c(-c2ccccc2)c(-c2ccc(F)cc2)n1CC[C@@H](O)C[C@@H](O)CC(=O)O [Atorvastatin, reference compound]",,,,,inhibition of endothelial tube / cord formation (in words) [1]: did not inhibit endothelial tube formation
CN(C)CCCN1c2ccccc2Sc2ccc(Cl)cc21 [NCGC00015273-19],,,> 10,> 10,
O=C1NCN(c2ccccc2)C12CCN(CCCC(c1ccc(F)cc1)c1ccc(F)cc1)CC2 [NCGC00015424-11],,,,,"IC50/EC50, VEGF_ADSC\ECFC Angio CD31 TubeArea (assay number 2) [1]: > 10 µM; IC50/EC50, VEGF_ADSC\ECFC Angio Hoechst NucArea (assay number 3) [2]: 8.086 µM"
OCCN1CCN(CCCN2c3ccccc3Sc3ccc(C(F)(F)F)cc32)CC1 [NCGC00015436-11],> 10,> 10,,,
O=c1c(-c2ccc(O)cc2)coc2cc(O)cc(O)c12 [NCGC00015479-19],,,,,"IC50/EC50, VEGF_ADSC\ECFC Angio CD31 TubeArea (assay number 2) [1]: > 10 µM; IC50/EC50, VEGF_ADSC\ECFC Angio Hoechst NucArea (assay number 3) [2]: > 10 µM"
Oc1ccc(O)cc1 [NCGC00015523-13],,,> 10,> 10,
CN(C)C(=O)Oc1cccc([N+](C)(C)C)c1.[Br-] [NCGC00015730-11],> 10,> 10,,,
OCCN1CCN(CCCN2c3ccccc3Sc3ccc(Cl)cc32)CC1 [NCGC00015826-13],,,> 10,> 10,
Cn1ccc2cc3c(cc21)CCN3C(=O)Nc1cccnc1 [NCGC00015917-06],,,,,"IC50/EC50, VEGF_ADSC\ECFC Angio CD31 TubeArea (assay number 2) [1]: > 10 µM; IC50/EC50, VEGF_ADSC\ECFC Angio Hoechst NucArea (assay number 3) [2]: > 10 µM"
CC(C)(C)CC(C)(C)c1ccc(OCCOCC[N+](C)(C)Cc2ccccc2)cc1 [NCGC00016373-08],,,3.74,,
Cc1cccc(C)c1NC(=O)CN1CCN(CCCC(c2ccc(F)cc2)c2ccc(F)cc2)CC1 [NCGC00016627-04],,,,,"IC50/EC50, VEGF_ADSC\ECFC Angio CD31 TubeArea (assay number 2) [1]: > 10 µM; IC50/EC50, VEGF_ADSC\ECFC Angio Hoechst NucArea (assay number 3) [2]: 9.37 µM"
CN1CCC[C@@H]1CCO[C@](C)(c1ccccc1)c1ccc(Cl)cc1.O=C(O)/C=C/C(=O)O [NCGC00016710-05],> 10,> 10,,,
COc1ccc(CCN2CCC(Nc3nc4ccccc4n3Cc3ccc(F)cc3)CC2)cc1 [NCGC00016913-14],> 10,> 10,,,
O=c1oc2c(O)c(O)cc3c(=O)oc4c(O)c(O)cc1c4c23 [NCGC00017245-10],> 10,> 10,,,
Oc1ccc(/C=C/c2cc(O)cc(O)c2)cc1 [NCGC00017352-24],,,,,"IC50/EC50, VEGF_ADSC\ECFC Angio CD31 TubeArea (assay number 2) [1]: > 10 µM; IC50/EC50, VEGF_ADSC\ECFC Angio Hoechst NucArea (assay number 3) [2]: > 10 µM"
CCOC(=O)C1=C[C@]2(CC)CCCN3CCc4c(n1c1ccccc41)[C@@H]32 [NCGC00018204-13],,,,,"IC50/EC50, VEGF_ADSC\ECFC Angio CD31 TubeArea (assay number 2) [1]: > 10 µM; IC50/EC50, VEGF_ADSC\ECFC Angio Hoechst NucArea (assay number 3) [2]: > 10 µM"
CC(=O)Oc1cccc2c1C(=O)c1c(OC(C)=O)cc(C(=O)O)cc1C2=O [NCGC00018274-05],,,,,"IC50/EC50, VEGF_ADSC\ECFC Angio CD31 TubeArea (assay number 2) [1]: > 10 µM; IC50/EC50, VEGF_ADSC\ECFC Angio Hoechst NucArea (assay number 3) [2]: > 10 µM"
O=C(c1ccc(F)cc1)C1CCN(CCn2c(=O)[nH]c3ccccc3c2=O)CC1 [NCGC00021146-09],> 10,> 10,,,
CCCCC(=O)O[C@H]1CC[C@H]2[C@@H]3CCc4cc(O)ccc4[C@@H]3CC[C@]12C [NCGC00022275-03],,,,,"IC50/EC50, VEGF_ADSC\ECFC Angio CD31 TubeArea (assay number 2) [1]: > 10 µM; IC50/EC50, VEGF_ADSC\ECFC Angio Hoechst NucArea (assay number 3) [2]: 8.298 µM"
CC[C@@H]1C(=O)OC[C@@H]1Cc1cncn1C [NCGC00023339-16],> 10,> 10,,,
CCN1CCC[C@H]1CNC(=O)c1c(OC)ccc(Br)c1OC [NCGC00024870-06],> 10,> 10,,,
CC[N+](CC)(CC)CCOc1ccc(/C=C/c2ccccc2)cc1 [NCGC00025122-02],,,> 10,> 10,

SMILES,VEGF_ADSC\ECFC Angio CD31 TubeArea IC50/EC50 [1] [µM],VEGF_ADSC\ECFC Angio Hoechst NucArea IC50/EC50 [2] [µM],IC50 [1] [µM],IC50 [2] [µM],also measured
Oc1ccc2[nH]cc(CCCCN3CC=C(c4ccccc4)CC3)c2c1 [NCGC00025216-03],4.0367,> 10,,,
CS(=O)(=O)O.Cc1c(O)cccc1C(=O)N[C@@H](CSc1ccccc1)[C@H](O)CN1C[C@H]2CCCC[C@H]2C[C@H]1C(=O)NC(C)(C)C [NCGC00090782-06],> 10,> 10,,,
Nc1ccc(O)cc1 [NCGC00090816-05],,,,,"IC50/EC50, VEGF_ADSC\ECFC Angio CD31 TubeArea (assay number 2) [1]: > 10 µM; IC50/EC50, VEGF_ADSC\ECFC Angio Hoechst NucArea (assay number 3) [2]: > 10 µM"
CCCCCCCCCCCC[N+](C)(C)CCOc1ccccc1 [NCGC00091010-03],,,3.38,7.29,
C#C[C@]1(O)CC[C@H]2[C@@H]3CCc4cc(O)ccc4[C@H]3CC[C@@]21C [NCGC00091533-10],,,> 10,> 10,
CN(C)C(=S)SSC(=S)N(C)C [NCGC00091563-12],,,,> 10,
CCCCC(CC)COC(=O)C(C#N)=C(c1ccccc1)c1ccccc1 (stereo not drawn) [NCGC00091585-05],> 10,3.289,,,
CC12CCC(CC1)C(C)(C)O2 [NCGC00091666-04],,,> 10,> 10,
O=C(O)c1ccc2[nH]cc(CCCCN3CC=C(c4ccccc4)CC3)c2c1 [NCGC00092328-02],> 10,> 10,,,
NC(=O)c1cccnc1 [NCGC00093354-05],,,> 10,> 10,
CCOc1ccc2nc3cc(N)ccc3c(N)c2c1 [NCGC00096056-02],,,,> 10,"IC50 (HeLa cells; assay number 14, 2N, read-out: Hela CellCycMod PI 2N summarized IC50): > 10 µM; IC50 (HeLa cells; assay number 15, S phase, read-out: Hela CellCycMod PI S Phase summarized IC50): > 10 µM; IC50 (HeLa cells; assay number 16, 4N, read-out: Hela CellCycMod PI 4N summarized IC50): > 10 µM; IC50 (HeLa cells; assay number 17, MI, read-out: Hela CellCycMod PI MI summarized IC50): > 10 µM; IC50 (HeLa cells; assay number 18, cell number, read-out: Hela CellCycMod PI Cell Number summarized IC50): 2.11 µM"
C[C@H]1O[C@@H](O[C@H]2[C@@H](O)C[C@H](O[C@H]3[C@@H](O)C[C@H](O[C@H]4CC[C@@]5(C)[C@H](CC[C@@H]6[C@@H]5CC[C@]5(C)[C@@H](C7=CC(=O)OC7)CC[C@]65O)C4)O[C@@H]3C)O[C@@H]2C)C[C@H](O)[C@@H]1O [NCGC00142623-04],,,0.011,0.103,
Oc1cc(Cl)ccc1Oc1ccc(Cl)cc1Cl [NCGC00159417-05],,,> 10,8.1,
CC(=O)Oc1ccc(C2(c3ccc(OC(C)=O)cc3)C(=O)Nc3ccccc32)cc1 [NCGC00159420-04],,,,,"IC50/EC50, VEGF_ADSC\ECFC Angio CD31 TubeArea (assay number 2) [1]: > 10 µM; IC50/EC50, VEGF_ADSC\ECFC Angio Hoechst NucArea (assay number 3) [2]: > 10 µM"
C[C@H]1O[C@@H](O[C@H]2CC[C@@]3(C)[C@H](CC[C@@H]4[C@@H]3C[C@@H](O)[C@]3(C)[C@@H](C5=CC(=O)OC5)CC[C@]43O)C2)C[C@H](O)[C@@H]1O[C@H]1C[C@H](O)[C@H](O[C@H]2C[C@H](O)[C@H](O[C@@H]3O[C@H](CO)[C@@H](O)[C@H](O)[C@H]3O)[C@@H](C)O2)[C@@H](C)O1 [NCGC00159441-03],0.0614,0.2987,,,
COC1=C(OC)C(=O)C(CCCCCCCCCCO)=C(C)C1=O [NCGC00160514-02],> 10,> 10,,,
O=C(N/N=C/c1ccccc1O)c1ccncc1 [NCGC00160648-02],,,> 10,> 10,
COc1ccc(/C=N/NC(=O)c2ccncc2)cc1OC [NCGC00160656-02],,,> 10,> 10,
O=C(CCN1CCC(c2ccccc2)C1)c1ccc2c(c1)OCCO2 (stereo not drawn) [NCGC00160665-02],> 10,> 10,,,
CCCCCCCCOc1ccccc1C(=O)Nc1ccc(C(=O)OCC[N+](C)(CC)CC)cc1.[Br-] [NCGC00163507-03],> 10,8.466,,,
O=[N+]([O-])C(Br)(CO)CO [NCGC00164057-03],,,> 10,> 10,
"CC[C@H](C)C(=O)O[C@H]1C[C@H](O)C=C2C=C[C@H](C)[C@H](CC[C@@H](O)C[C@@H](O)CC(=O)O)[C@H]21 [pravastatin, reference compound]",,,,,inhibition of endothelial tube / cord formation (in words) ([1]; ECFC/ADSC co-culture): did not inhibit endothelial tube formation
